Source: patent US20230150981A1, “N-HETEROARYLALKYL-2-(HETEROCYCLYL AND HETEROCYCLYLMETHYL) ACETAMIDE DERIVATIVES AS SSTR4 AGONISTS” (Takeda Pharmaceutical Compnay Limited, priority 2020, published 2023)

Legend:
[1] = biological target: T1, SSTR4 (Homo sapiens, UniProt P31391); assay: Inhibition of forskolin stimulated cAMP in CHO-K1 cells overexpressing SSTR4; assay type: cell-based; conditions: read-out: SSTR4 Activity pEC50 (converted)
T1 construct: host or cells: CHO-K1
In short: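 CHO-K1 cells overexpressing SSTR4 treated 30 min at room temperature with compound in Krebs Ringer buffer containing 0.5% BSA, 300 μM IBMX and 350 nM forskolin. Intracellular cAMP measured by HTRF LANCE Ultra (665/615 nm); pEC50 values reported.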

[2] = biological target: T1, SSTR4; assay: SSTR4 I-125 somatostatin competition binding assay (CHO-K1 membranes); conditions: competition with I-125 somatostatin, membranes from CHO-K1 overexpressing SSTR4; read-out: SSTR4 Binding pIC50 (converted)
In short: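 CHO-K1 membranes overexpressing SSTR4 (1 μg/well) were incubated 60 min at room temperature with compound and I-125 somatostatin (0.2 nM in the compound mix) in 25 mM HEPES pH 7.4, 10 mM MgCl2, 1 mM CaCl2, 0.5% BSA. Bound radioligand was collected on PEI-soaked filters and scintillation-counted, with results reported as pIC50.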

[3] = biological target: T2, SSTR1 (Homo sapiens, UniProt P30872); assay: SSTR1 I-125 somatostatin competition binding assay for selectivity versus SSTR1 (CHO-K1 membranes); conditions: competition with I-125 somatostatin, membranes from CHO-K1 overexpressing SSTR1; read-out: SSTR1 Binding pIC50 (converted)
T2 construct: purchased Perkin Elmer ES-520-M400UA; host or cells: CHO-K1 membranes
In short: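 Competition binding used 10 μg CHO-K1 SSTR1 membranes and I-125 somatostatin, 0.4 nM in the compound mix before membranes were added. Buffer was 25 mM HEPES pH 7.4, 10 mM MgCl2, 1 mM CaCl2, 0.5% BSA. After 60 min at room temperature, bound tracer was filtered onto PEI-soaked filters and counted by scintillation; values are pIC50.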

T1 sequence (P31391 whole entry): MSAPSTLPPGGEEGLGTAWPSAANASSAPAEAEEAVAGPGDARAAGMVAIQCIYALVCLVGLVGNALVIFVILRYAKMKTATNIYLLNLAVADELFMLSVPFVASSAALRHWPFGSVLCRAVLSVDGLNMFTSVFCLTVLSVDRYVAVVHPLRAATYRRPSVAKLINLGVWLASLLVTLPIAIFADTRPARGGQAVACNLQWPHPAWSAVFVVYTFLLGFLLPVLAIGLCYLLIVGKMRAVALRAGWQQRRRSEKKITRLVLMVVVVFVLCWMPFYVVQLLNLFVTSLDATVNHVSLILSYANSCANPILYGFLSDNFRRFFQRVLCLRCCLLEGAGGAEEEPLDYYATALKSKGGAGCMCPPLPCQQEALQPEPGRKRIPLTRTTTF
T2 sequence (P30872 whole entry): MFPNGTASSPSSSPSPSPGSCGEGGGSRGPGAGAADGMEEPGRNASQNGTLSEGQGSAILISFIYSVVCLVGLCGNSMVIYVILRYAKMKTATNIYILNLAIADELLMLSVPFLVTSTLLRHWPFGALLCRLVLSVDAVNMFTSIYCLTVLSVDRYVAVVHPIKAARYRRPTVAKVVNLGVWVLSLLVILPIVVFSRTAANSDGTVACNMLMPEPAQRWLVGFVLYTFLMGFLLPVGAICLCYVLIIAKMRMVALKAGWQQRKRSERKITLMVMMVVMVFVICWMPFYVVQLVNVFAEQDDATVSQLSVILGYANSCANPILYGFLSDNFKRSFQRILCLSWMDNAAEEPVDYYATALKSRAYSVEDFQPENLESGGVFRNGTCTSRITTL

| Structure (SMILES) | EC50 [1] | IC50 [2] | IC50 [3] |
| --- | --- | --- | --- |
| CC(C)(COc1ncccc1C(F)F)NC(=O)CC12CCCN1CCC2 [Example 78, N-(1-((3-(difluoromethyl)pyridin-2-yl)oxy)-2-methylpropan-2-yl)-2-(tetrahydro-1H-pyrrolizin-7a(5H)-yl)acetamide] | 0.251 µM | 10 µM | > 50.1 µM |
| CN1CCC[C@H]1CC(=O)NC(C)(C)c1cccc(Cl)c1Cl [Example 80, (S)-N-(2-(2,3-dichlorophenyl)propan-2-yl)-2-(1-methylpyrrolidin-2-yl)acetamide] | 0.0251 µM | 0.316 µM | 20 µM |
| CN1CCC[C@@H]1CC(=O)NC(C)(C)c1cccc(F)c1Cl [Example 94, (R)-N-(2-(2-chloro-3-fluorophenyl)propan-2-yl)-2-(1-methylpyrrolidin-2-yl)acetamide] | 0.0631 µM | 0.398 µM | > 50.1 µM |
| CN1CCC[C@@H]1CC(=O)NC(C)(C)c1cccc(Cl)c1Cl [Example 96, (R)-N-(2-(2,3-dichlorophenyl)propan-2-yl)-2-(1-methylpyrrolidin-2-yl)acetamide] | 0.0158 µM | 0.2 µM | 15.8 µM |
| CC(C)(NC(=O)CC1NCCC1(F)F)c1nccc2ccccc12 (stereo not drawn) [Example 100, 2-(3,3-difluoropyrrolidin-2-yl)-N-(2-(isoquinolin-1-yl)propan-2-yl)acetamide] | 0.2 µM | 1 µM | > 50.1 µM |
| Cc1cccc2c(C(C)(C)NC(=O)CC3NCCC3(F)F)nccc12 (stereo not drawn) [Example 101, 2-(3,3-difluoropyrrolidin-2-yl)-N-(2-(5-methylisoquinolin-1-yl)propan-2-yl)acetamide] | 0.1 µM | 0.631 µM | > 50.1 µM |
| Cc1cccc(OCC(C)(C)NC(=O)C[C@@H]2CCCN2C)n1 [Example 104, (S)-N-(2-methyl-1-((6-methylpyridin-2-yl)oxy)propan-2-yl)-2-(1-methylpyrrolidin-2-yl)acetamide] | 0.1 µM | 2 µM | 39.8 µM |
| COc1c(Cl)cccc1C(C)(C)NC(=O)C[C@@H]1CCCN1C [Example 112, (S)-N-(2-(3-chloro-2-methoxyphenyl)propan-2-yl)-2-(1-methylpyrrolidin-2-yl)acetamide] | 0.0794 µM | 0.501 µM | > 50.1 µM |
| CC(CN1CCCC1)C(=O)NC(C)(C)c1ccccc1Cl (stereo not drawn) [Example 135, N-(2-(2-chlorophenyl)propan-2-yl)-2-methyl-3-(pyrrolidin-1-yl)propanamide] | 0.01 µM | 0.158 µM | 15.8 µM |
| O=C(CCN1CCC1)NC(c1cc(F)ccc1F)C(F)F (stereo not drawn) [Example 167, 3-(azetidin-1-yl)-N-(1-(2,5-difluorophenyl)-2,2-difluoroethyl)propanamide] | 0.0251 µM | 0.251 µM | > 50.1 µM |
| CC(C)[C@@H](CN1CCC1)C(=O)N[C@@H](c1ccccc1)C(F)F [Example 178, (S)-2-(azetidin-1-ylmethyl)-N-((S)-2,2-difluoro-1-phenylethyl)-3-methylbutanamide] | 0.0398 µM | 0.0398 µM | 6.31 µM |
| CC(C)[C@@H](CN1CCC1)C(=O)N[C@H](c1ccccc1)C(F)F [Example 179, (S)-2-(azetidin-1-ylmethyl)-N-((R)-2,2-difluoro-1-phenylethyl)-3-methylbutanamide] | 0.0002 µM | 0.002 µM | 0.251 µM |
| CC[C@@H](CN1CCC1)C(=O)N[C@H](c1ccccc1)C(F)F [Example 180, (S)-2-(azetidin-1-ylmethyl)-N-((R)-2,2-difluoro-1-phenylethyl)butanamide] | 0.000126 µM | 0.00316 µM | 0.631 µM |
| COc1ccccc1[C@@H](NC(=O)[C@H](CN1CCC1)C(C)C)C(F)F [Example 188, (S)-2-(azetidin-1-ylmethyl)-N-((R)-2,2-difluoro-1-(2-methoxyphenyl)ethyl)-3-methylbutanamide] | 0.000501 µM | 0.002 µM | 0.126 µM |
| CC[C@@H](CN1CCC1)C(=O)N[C@H](c1ccccc1OC)C(F)F [Example 189, (S)-2-(azetidin-1-ylmethyl)-N-((R)-2,2-difluoro-1-(2-methoxyphenyl)ethyl)butanamide] | 0.001 µM | 0.00794 µM | 0.631 µM |
| CC(C)[C@@H](CN1CCC1)C(=O)N[C@H](c1cccc(F)c1)C(F)F [Example 194, (S)-2-(azetidin-1-ylmethyl)-N-((R)-2,2-difluoro-1-(3-fluorophenyl)ethyl)-3-methylbutanamide] | 0.000794 µM | 0.00251 µM | 0.631 µM |
| CC[C@@H](CN1CCC1)C(=O)N[C@H](c1cccc(F)c1)C(F)F [Example 195, (S)-2-(azetidin-1-ylmethyl)-N-((R)-2,2-difluoro-1-(3-fluorophenyl)ethyl)butanamide] | 0.002 µM | 0.00251 µM | 1 µM |
| CC(C)[C@@H](CN1CCC1)C(=O)N[C@H](c1ccc(F)cc1)C(F)F [Example 196, (S)-2-(azetidin-1-ylmethyl)-N-((R)-2,2-difluoro-1-(4-fluorophenyl)ethyl)-3-methylbutanamide] | 0.0002 µM | 0.00316 µM | 0.501 µM |

Next, values leading:

| EC50 [1] | IC50 [2] | IC50 [3] | Structure (SMILES) |
| --- | --- | --- | --- |
| 0.0631 µM | 0.398 µM | 39.8 µM | Cc1cccc(C(C)(C)NC(=O)C[C@@H]2CCCN2C)c1Cl [Example 88, (S)-N-(2-(2-chloro-3-methylphenyl)propan-2-yl)-2-(1-methylpyrrolidin-2-yl)acetamide] |
| 0.0398 µM | 0.398 µM | 25.1 µM | Cc1cccc(C(C)(C)NC(=O)C[C@H]2CCCN2C)c1Cl [Example 91, (R)-N-(2-(2-chloro-3-methylphenyl)propan-2-yl)-2-(1-methylpyrrolidin-2-yl)acetamide] |
| 0.0631 µM | 1 µM | > 50.1 µM | Cc1cccc(C(C)(C)NC(=O)C[C@@H]2CCCN2C)c1C [Example 92, (S)-N-(2-(2,3-dimethylphenyl)propan-2-yl)-2-(1-methylpyrrolidin-2-yl)acetamide] |
| 0.0794 µM | 0.398 µM | 39.8 µM | Cc1c(Cl)cccc1C(C)(C)NC(=O)C[C@@H]1CCCN1C [Example 118, (S)-N-(2-(3-chloro-2-methylphenyl)propan-2-yl)-2-(1-methylpyrrolidin-2-yl)acetamide] |
| 0.0158 µM | 0.251 µM | 20 µM | Cc1c(Cl)cccc1C(C)(C)NC(=O)C[C@H]1CCCN1C [Example 119, (R)-N-(2-(3-chloro-2-methylphenyl)propan-2-yl)-2-(1-methylpyrrolidin-2-yl)acetamide] |
| 0.00794 µM | 0.0794 µM | 20 µM | CC(CN1CCC1)C(=O)NC(C)(C)c1ccccc1Cl (stereo not drawn) [Example 132, 3-(azetidin-1-yl)-N-(2-(2-chlorophenyl)propan-2-yl)-2-methylpropanamide] |
| 0.158 µM | 1 µM | > 50.1 µM | CN1CCC[C@H]1CC(=O)NC(C)(C)c1ccccc1F [Example 160, (S)-N-(2-(2-fluorophenyl)propan-2-yl)-2-(1-methylpyrrolidin-2-yl)acetamide] |
| 0.00398 µM | 0.0501 µM | 6.31 µM | Cc1cccc(C(C)(C)NC(=O)CCN2CCC2)c1Cl [Example 161, 3-(azetidin-1-yl)-N-(2-(2-chloro-3-methylphenyl)propan-2-yl)propanamide] |
| 0.00794 µM | 0.0794 µM | 25.1 µM | Cc1cccc(C(C)(C)NC(=O)CCN2CCC2)c1 [Example 162, 3-(azetidin-1-yl)-N-(2-(m-tolyl)propan-2-yl)propanamide] |
| 0.0251 µM | 0.398 µM | > 50.1 µM | CC(C)(NC(=O)CCN1CCC1)c1cccc(F)c1 [Example 163, 3-(azetidin-1-yl)-N-(2-(3-fluorophenyl)propan-2-yl)propanamide] |
| 0.0126 µM | 0.0398 µM | 31.6 µM | CC(C)(NC(=O)CCN1CCC1)c1cccc(Cl)c1 [Example 164, 3-(azetidin-1-yl)-N-(2-(3-chlorophenyl)propan-2-yl)propanamide] |
| 0.01 µM | 0.0794 µM | 25.1 µM | CC(C)(NC(=O)CCN1CCC1)c1ccc(Cl)cc1 [Example 165, 3-(azetidin-1-yl)-N-(2-(4-chlorophenyl)propan-2-yl)propanamide] |
| 0.0126 µM | 0.0501 µM | 39.8 µM | Cc1c(F)cccc1C(C)(C)NC(=O)CCN1CCC1 [Example 166, 3-(azetidin-1-yl)-N-(2-(3-fluoro-2-methylphenyl)propan-2-yl)propanamide] |
| 0.000794 µM | 0.0251 µM | 5.01 µM | COc1c(F)cccc1C(C)(C)NC(=O)C(C)CN1CCC1 (stereo not drawn) [Example 170, 3-(azetidin-1-yl)-N-(2-(3-fluoro-2-methoxyphenyl)propan-2-yl)-2-methylpropanamide] |
| 0.02 µM | 0.2 µM | > 50.1 µM | Cc1ccc(C(CF)NC(=O)CCN2CCC2)cc1 (stereo not drawn) [Example 173, 3-(azetidin-1-yl)-N-(2-fluoro-1-(p-tolyl)ethyl)propanamide] |
